Assay results as given in PMC8071314, “Computational Design and Development of Benzodioxane-Benzamides as Potent Inhibitors of FtsZ by Exploring the Hydrophobic Subpocket” (Antibiotics, 2021).
Values after ≈ are worked out from the molar mass of the structure shown.

Assays:
[1] = test system: MSSA ATCC 29213 and MRSA ATCC 43300; test: MIC and MBC on methicillin-sensitive and methicillin-resistant S. aureus; type: cell-based, Staphylococcus aureus; conditions: for fold more potent than inferior (methylenoxy) homolog: MRSA and MSSA, 1 vs VI, 2 vs VII, 3 vs V, 5 vs 4, 8 vs 7; for MIC / MBC: Staphylococcus aureus, MSSA ATCC 29213 and MRSA ATCC 43300; for MIC: lowest dose arresting bacterial growth; for MBC: minimal dose for irreversible block
Experimental: (§1) We first determined the minimal inhibitory concentration (MIC), i.e., the lowest compound dose (µM) arresting bacterial growth, and the minimal bactericidal concentration (MBC), i.e., the minimal dose (µM) of the compound required for an irreversible block, even after drug removal. Secondly, the derivatives having the most promising activities vs. MRSA were also tested on human MRC-5 cells, calculating their percentages of cytotoxicity by using the MTT assay. Cells were first incubated with each compound for 24 h, then the derivative was removed, and the cells were overlaid with MTT for an additional 3 h. After that time, DMSO replaced the MTT solution, and after 10 min the absorbance was measured at 570 nm. The percentage of cytotoxicity was defined by the formula [100 − (sample OD/untreated cells OD) × 100]. Table 2 reports TD90, defined as the compound concentration (µM) that reduced viability of MRC-5 cells by 90%. Moreover, we reported the therapeutic index (TI), as TD90 and MBC ratio.
The antibacterial activity was tested on both a methicillin-sensitive and a methicillin-resistant S. aureus strain, dissolving all the compounds in dimethyl sulfoxide (DMSO) and using fresh cell cultures at 10^5 cells/mL, in a final volume of 2 mL. The detailed protocol is identical to what was previously reported. Every assay was performed in quadruplicate, and for each series of experiments, both positive (no compounds) and negative (no bacteria) controls were included.

[2] = test system: MRC-5 cells; test: MTT cytotoxicity assay on MRC-5 cells; type: cell-based, human; conditions: concentration reducing viability of MRC-5 cells by 90%, 24 h incubation
Experimental: as §1
Compounds showing an antibacterial activity at a concentration lower than 10 μg/mL were serially diluted in DMEM and tested for cytotoxicity on MRC-5 cells by the MTT assay (Sigma, St Louis, MO, USA). Protocol was the same previously reported.

[3] = test system: MDRSA 12.1; test: MIC on multidrug resistant clinical S. aureus strain MDRSA 12.1 (EUCAST/CLSI); type: cell-based, Staphylococcus aureus; conditions: for MIC: Staphylococcus aureus, MDRSA 12.1
Experimental: (§2) We tested 1–8 for their antimicrobial activity on different S. aureus strains (Table 2).
(§3) The antibacterial activities on MDRSA 11.7 and MDRSA 12.1 were performed following the European Committee on Antimicrobial Susceptibility Testing (EUCAST) recommendations and Clinical and Laboratory Standards Institute (CLSI) guidelines, as detailed before. Tetracycline was used as a positive control on every assay plate.

[4] = test system: MDRSA 11.7; test: MIC on multidrug resistant clinical S. aureus strain MDRSA 11.7 (EUCAST/CLSI); type: cell-based; conditions: Staphylococcus aureus
Experimental: as §2, §3

[5] = test system: B. subtilis strain WM5126; test: Spot viability assay on LB plates; type: cell-based; conditions: Bacillus subtilis, spotted on LB plates with 0, 0.03, 0.06, 0.1 or 1 µg/mL compound
Experimental: The promising properties of these new compounds prompted us to test them on B. subtilis, a model Gram-positive species used previously in evaluating other benzamides, such as 8j, the benzothiazole derivative of PC190723 [28]. We chose derivatives 1, 5, and 8, which had the lowest MICs on S. aureus and because they were representative of different substituents on the benzodioxane scaffold. B. subtilis strain WM5126 was grown until early log phase, and then 1 × and 10 × dilutions of the culture were spotted onto LB plates containing 0, 0.03, 0.06, 0.1, or 1 µg/mL final concentration of the compounds.
The two B. subtilis strains used were WM3612 (JH642 amyE::Pxyl-gfp-gp56), described in Bhambani et al., and WM5126 (JH642 amyE::Pxyl-gfp-zapA), which is the same as strain FG347 [29]. For spot viability assays on plates, compounds were diluted from DMSO stocks into molten LB agar as described above and mixed well before solidifying. WM3612 cultures were grown to early exponential phase in LB broth at 37 °C, then spotted directly or after 1:10 dilution into LB onto LB plates containing various concentrations of compounds. After allowing spots to air dry, plates were then incubated overnight at 34 °C and photographed.

[6] = test system: B. subtilis FtsZ rings (strain WM5126, GFP-ZapA); test: Fluorescence microscopy of GFP-ZapA (Z ring) localization; type: cell-based, Bacillus subtilis; conditions: 1 h exposure
Experimental: (yellow arrows in Figure 5 highlight normal sharp bands at the future division sits). On the contrary, in cells treated with compounds 7 and 8, we observed GFP-ZapA forming many (0.4 µg/mL 7) or nearly all (0.8 µg/mL 7 or 0.4 µg/mL 8) foci or focal clusters (white arrows in Figure 5), and abnormal cell elongation is clearly evident. The perturbation of Z rings and cell elongation is similar to the previously described effects of 8j.
For fluorescence microscopy, overnight cultures of WM5126 were grown at […] (after 1:200 dilution of overnight and addition of 0.1% xylose to induce expression of GFP-ZapA) for ~2 h until reaching an OD600 of ~0.2, then treated with no drug or with compounds 7 or 8 diluted in water from stock solutions of 40 mg/mL (8) or 27 mg/mL (7) in DMSO. Those dilutions (40 µg/mL in water) were then added at 1:100 or 1:50 to the cultures and grown for 1 h shaking at 33 °C prior to spotting on a thin layer of 1% agarose in phosphate buffered saline. Cells were imaged with differential interference contrast (DIC) and fluorescence using an Olympus BX100 fitted with a 100 × Plan Apochromat objective (N.A. 1.4) and a GFP filter set (Chroma). Images were acquired with CellSens software (Olympus) and DIC, and fluorescent images of the same field were overlaid using ImageJ [31].
Figure 5 Effect of compounds 7 and 8 on B. subtilis Z rings. B. subtilis strain WM5126 was induced with 0.1% xylose to express GFP-ZapA, then exposed to compounds 7 or 8 for 1 h during exponential growth at 37 °C prior to imaging by DIC and fluorescence. Yellow arrows indicate normal sharp rings at the future division site, while white arrows indicate abnormal foci or clusters. Scale bar, 5 µm.

[7] = test system: MSSA ATCC29213; design: method as in PMID 25462242, PMID 27191617, PMID 31750973, PMID 28586174, PMID 32260339; conditions: Figure 1; cited from earlier work

SMILES	fold more potent than inferior (methylenoxy) homolog [1]	MIC [1] [µM]	MBC [1] [µM]	TD90 [2] [µM]	MIC [3] [µM]	MIC [4] [µM]	MIC [5] [µg/mL]	times more active than inferior homolog ([3]; MDRSA, 3 vs V)	GFP-ZapA forming foci or focal clusters ([6]; 0.4 µg/mL)	GFP-ZapA forming foci or focal clusters ([6]; 0.8 µg/mL)	melting point [°C]	MIC [7] [µM]
Cc1nc(-c2ccc3c(c2)OC(CCOc2ccc(F)c(C(N)=O)c2F)CO3)no1 (stereo not drawn) [Compound 1, 3-[2-(7-(5-methyl-1,2,4-oxadiazol-3-yl)-1,4-benzodioxan-2-yl)ethyloxy]-2,6-difluorobenzamide]	5 fold	1.2 (≈ 0.501 µg/mL)	1.2 (≈ 0.501 µg/mL)	>1910	1.2 (≈ 0.501 µg/mL)	1.2 (≈ 0.501 µg/mL)	0.1 to 1 (≈ 0.24 to 2.4 µM)	–	–	–	–	–
CCc1nc(-c2ccc3c(c2)OC(CCOc2ccc(F)c(C(N)=O)c2F)CO3)no1 (stereo not drawn) [Compound 2]	10 fold	0.6 (≈ 0.259 µg/mL)	0.6 (≈ 0.259 µg/mL)	1854	0.6 (≈ 0.259 µg/mL)	0.6 (≈ 0.259 µg/mL)	–	–	–	–	–	–
CSc1nc(-c2ccc3c(c2)OC(CCOc2ccc(F)c(C(N)=O)c2F)CO3)no1 (stereo not drawn) [Compound 3, 3-[2-(7-(5-methylthio-1,2,4-oxadiazol-3-yl)-1,4-benzodioxan-2-yl)ethyloxy]-2,6-difluorobenzamide]	three	0.5 (≈ 0.225 µg/mL)	0.5 (≈ 0.225 µg/mL)	1668	1.1 (≈ 0.494 µg/mL)	1.1 (≈ 0.494 µg/mL)	–	two	–	–	–	–
NC(=O)c1c(F)ccc(OCC2COc3cc4ccccc4cc3O2)c1F (stereo not drawn) [Compound 4, 3-[(2,3-dihydronaphtho[2,3-b][1,4]dioxin-2-yl)methoxy]-2,6-difluorobenzamide]	–	7.1 (≈ 2.64 µg/mL)	7.1 (≈ 2.64 µg/mL)	>2276	11.4 (≈ 4.23 µg/mL)	11.4 (≈ 4.23 µg/mL)	–	–	–	–	–	–
NC(=O)c1c(F)ccc(OCCC2COc3cc4ccccc4cc3O2)c1F (stereo not drawn) [Compound 5, 3-[2-(2,3-dihydronaphtho[2,3-b][1,4]dioxin-2-yl)ethoxy]-2,6-difluorobenzamide]	12 fold	0.6 (≈ 0.231 µg/mL)	0.6 (≈ 0.231 µg/mL)	233	0.6 (≈ 0.231 µg/mL)	1.3 (≈ 0.501 µg/mL)	< 0.1	–	–	–	–	–
NC(=O)c1c(F)ccc(OCCCOc2ccc3ccccc3c2)c1F [Compound 6]	–	14 (≈ 5 µg/mL)	14 (≈ 5 µg/mL)	>2238	11.2 (≈ 4 µg/mL)	11.2 (≈ 4 µg/mL)	–	–	–	–	–	–
NC(=O)c1c(F)ccc(OCC2COc3cc4c(cc3O2)CCCC4)c1F (stereo not drawn) [Compound 7]	–	13.3 (≈ 4.99 µg/mL)	13.3 (≈ 4.99 µg/mL)	200	5.3 (≈ 1.99 µg/mL)	10.7 (≈ 4.02 µg/mL)	–	–	many	nearly all	–	–
NC(=O)c1c(F)ccc(OCCC2COc3cc4c(cc3O2)CCCC4)c1F (stereo not drawn) [Compound 8, 3-[2-(2,3,6,7,8,9-hexahydronaphtho[2,3-b][1,4]dioxin-2-yl)ethoxy]-2,6-difluorobenzamide]	50 fold	0.25 (≈ 0.0973 µg/mL)	0.25 (≈ 0.0973 µg/mL)	2054	0.3 (≈ 0.117 µg/mL)	0.3 (≈ 0.117 µg/mL)	< 0.1	–	nearly all	–	166.5	–
NC(=O)c1c(F)ccc(OCc2nc3cc(Cl)ccc3s2)c1F [Compound 8j]	–	–	–	–	–	–	–	–	–	–	–	0.70 (≈ 0.248 µg/mL)
NC(=O)c1c(F)ccc(OCC2COc3ccccc3O2)c1F (stereo not drawn) [I, reference compound]	–	15.6 (≈ 5.01 µg/mL)	249 (≈ 80 µg/mL)	49.8	24.9 (≈ 8 µg/mL)	49.8 (≈ 16 µg/mL)	–	–	–	–	–	15.6 (≈ 5.01 µg/mL)
NC(=O)c1c(F)ccc(OCCC2COc3ccccc3O2)c1F (stereo not drawn) [II, reference compound]	–	14.9 (≈ 5 µg/mL)	14.9 (≈ 5 µg/mL)	226	11.9 (≈ 3.99 µg/mL)	11.9 (≈ 3.99 µg/mL)	–	–	–	–	–	14.9 (≈ 5 µg/mL)
NC(=O)c1c(F)ccc(OCCCC2COc3ccccc3O2)c1F (stereo not drawn) [III]	–	–	–	–	–	–	–	–	–	–	–	28.6 (≈ 9.99 µg/mL)
COC(=O)c1ccc2c(c1)OC(COc1ccc(F)c(C(N)=O)c1F)CO2 (stereo not drawn) [IV]	–	–	–	–	–	–	–	–	–	–	–	1.6 (≈ 0.607 µg/mL)
NC(=O)c1c(F)ccc(OCc2nc3cc(Cl)cnc3s2)c1F [PC190723]	–	–	–	–	–	–	–	–	–	–	–	2.8 (≈ 0.996 µg/mL)
CSc1nc(-c2ccc3c(c2)OC(COc2ccc(F)c(C(N)=O)c2F)CO3)no1 (stereo not drawn) [V, reference compound]	–	1.4 (≈ 0.61 µg/mL)	1.4 (≈ 0.61 µg/mL)	1700	< 2.3	< 2.3	–	–	–	–	–	1.4 (≈ 0.61 µg/mL)
Cc1nc(-c2ccc3c(c2)OC(COc2ccc(F)c(C(N)=O)c2F)CO3)no1 (stereo not drawn) [VI, reference compound]	–	6.2 (≈ 2.5 µg/mL)	6.2 (≈ 2.5 µg/mL)	>1983	5 (≈ 2.02 µg/mL)	9.9 (≈ 3.99 µg/mL)	–	–	–	–	–	6.2 (≈ 2.5 µg/mL)
CCc1nc(-c2ccc3c(c2)OC(COc2ccc(F)c(C(N)=O)c2F)CO3)no1 (stereo not drawn) [VII, reference compound]	–	6 (≈ 2.5 µg/mL)	6 (≈ 2.5 µg/mL)	>1916	4.8 (≈ 2 µg/mL)	9.6 (≈ 4.01 µg/mL)	–	–	–	–	–	6.0 (≈ 2.5 µg/mL)
